{
  "source": "ChEMBL document CHEMBL6127065",
  "about": "“Design and Synthesis of c-Met and HDAC Dual Inhibitors for the Treatment of Breast Cancer” (ACS Med Chem Lett, 2024)",
  "key": {"[1]": {"tested_on": "MDA-MB-231", "experiment": "Induction of cell cycle arrest in human MDA-MB-231 cells assessed as accumulation of cells at S phase at 1 uM incubated for 48 hrs by PI staining based flow cytometry (reference value: 12.56 to 14.76%)", "assay_type": "functional"}, "[2]": {"biological_target": "T1, Hepatocyte growth factor receptor (Homo sapiens, UniProt P08581)", "T1 sequence (P08581 whole entry)": "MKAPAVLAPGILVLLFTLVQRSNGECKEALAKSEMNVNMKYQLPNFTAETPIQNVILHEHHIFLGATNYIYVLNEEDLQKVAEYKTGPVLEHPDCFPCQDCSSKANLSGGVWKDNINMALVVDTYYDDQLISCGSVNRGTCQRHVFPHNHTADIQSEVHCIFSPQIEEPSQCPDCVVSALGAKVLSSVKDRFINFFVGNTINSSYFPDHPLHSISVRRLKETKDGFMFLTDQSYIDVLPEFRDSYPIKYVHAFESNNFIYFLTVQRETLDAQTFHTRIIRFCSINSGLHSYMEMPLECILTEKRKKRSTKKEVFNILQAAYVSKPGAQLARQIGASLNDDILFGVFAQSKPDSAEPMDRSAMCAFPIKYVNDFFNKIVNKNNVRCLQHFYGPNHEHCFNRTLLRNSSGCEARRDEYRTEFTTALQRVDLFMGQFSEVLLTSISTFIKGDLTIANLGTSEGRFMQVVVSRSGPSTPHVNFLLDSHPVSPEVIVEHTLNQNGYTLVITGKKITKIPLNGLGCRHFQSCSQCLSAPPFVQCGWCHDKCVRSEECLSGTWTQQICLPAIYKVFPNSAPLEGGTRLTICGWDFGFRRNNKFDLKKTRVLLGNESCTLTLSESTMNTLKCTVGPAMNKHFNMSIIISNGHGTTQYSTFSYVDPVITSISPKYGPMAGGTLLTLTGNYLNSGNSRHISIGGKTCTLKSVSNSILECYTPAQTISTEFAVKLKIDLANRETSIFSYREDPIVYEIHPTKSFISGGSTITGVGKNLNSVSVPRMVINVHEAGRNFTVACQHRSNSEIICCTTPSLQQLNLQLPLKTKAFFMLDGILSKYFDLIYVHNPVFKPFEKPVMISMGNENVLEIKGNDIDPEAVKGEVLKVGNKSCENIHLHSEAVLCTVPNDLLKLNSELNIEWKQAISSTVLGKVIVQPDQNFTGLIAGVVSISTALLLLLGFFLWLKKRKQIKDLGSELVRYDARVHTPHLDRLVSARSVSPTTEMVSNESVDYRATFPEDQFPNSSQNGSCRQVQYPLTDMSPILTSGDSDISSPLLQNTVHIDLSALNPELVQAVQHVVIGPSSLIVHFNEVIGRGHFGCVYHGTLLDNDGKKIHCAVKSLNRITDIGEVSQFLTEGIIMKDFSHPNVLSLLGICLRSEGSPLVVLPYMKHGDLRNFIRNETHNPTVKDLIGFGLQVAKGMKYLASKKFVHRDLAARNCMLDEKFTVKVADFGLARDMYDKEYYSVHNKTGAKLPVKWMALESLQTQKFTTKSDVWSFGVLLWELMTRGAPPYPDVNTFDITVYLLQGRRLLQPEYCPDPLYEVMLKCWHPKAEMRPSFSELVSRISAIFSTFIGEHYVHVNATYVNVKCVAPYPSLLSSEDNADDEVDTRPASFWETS", "experiment": "Inhibition of c-Met (unknown origin) using Poly(Glu:Tyr)(4:1) and ATP as substrate incubated for 45 mins by Kinase-Glo Max reagent based luminescence analysis"}, "[3]": {"tested_on": "MDA-MB-231", "experiment": "Inhibition of colony formation in human MDA-MB-231 cells at 1 to 25 uM incubated for 7 days by crystal violet staining based analysis", "assay_type": "functional, cell-based", "settings": "dose 1-25 µM, time 7.0 day"}, "[4]": {"tested_on": "MDA-MB-231", "experiment": "Induction of apoptosis in human MDA-MB-231 cells assessed as viable cells at 2.5 uM incubated for 48 hrs by AnnexinV-FITC/PI staining based flow cytometry (reference value: 91.22 to 92.84%)", "assay_type": "functional", "settings": "read-out: Activity"}, "[5]": {"tested_on": "MDA-MB-231", "experiment": "Induction of apoptosis in human MDA-MB-231 cells assessed as early apoptotic cells at 2.5 uM incubated for 48 hrs by AnnexinV-FITC/PI staining based flow cytometry (reference value: 1.6 to 2.41%)", "assay_type": "functional"}, "[6]": {"tested_on": "MDA-MB-231", "experiment": "Induction of apoptosis in human MDA-MB-231 cells assessed as late apoptotic cells at 2.5 uM incubated for 48 hrs by AnnexinV-FITC/PI staining based flow cytometry (reference value: 3.77 to 3.84%)", "assay_type": "functional"}, "[7]": {"tested_on": "MDA-MB-231", "experiment": "Induction of apoptosis in human MDA-MB-231 cells assessed as necrotic cells at 2.5 uM incubated for 48 hrs by AnnexinV-FITC/PI staining based flow cytometry (reference value: 1.79 to 2.53%)", "assay_type": "functional"}, "[8]": {"tested_on": "MDA-MB-231", "experiment": "Induction of apoptosis in human MDA-MB-231 cells assessed as early apoptotic cells at 5 uM incubated for 48 hrs by AnnexinV-FITC/PI staining based flow cytometry (reference value: 1.6 to 2.41%)", "assay_type": "functional"}, "[9]": {"tested_on": "MDA-MB-231", "experiment": "Induction of apoptosis in human MDA-MB-231 cells assessed as late apoptotic cells at 5 uM incubated for 48 hrs by AnnexinV-FITC/PI staining based flow cytometry (reference value: 3.77 to 3.84%)", "assay_type": "functional"}, "[10]": {"tested_on": "MDA-MB-231", "experiment": "Induction of apoptosis in human MDA-MB-231 cells assessed as necrotic cells at 5 uM incubated for 48 hrs by AnnexinV-FITC/PI staining based flow cytometry (reference value: 1.79 to 2.53%)", "assay_type": "functional"}, "[11]": {"tested_on": "MDA-MB-231", "experiment": "Induction of apoptosis in human MDA-MB-231 cells assessed as viable cells at 10 uM incubated for 48 hrs by AnnexinV-FITC/PI staining based flow cytometry (reference value: 91.22 to 92.84%)", "assay_type": "functional", "settings": "read-out: Activity"}, "[12]": {"tested_on": "MDA-MB-231", "experiment": "Induction of apoptosis in human MDA-MB-231 cells assessed as early apoptotic cells at 10 uM incubated for 48 hrs by AnnexinV-FITC/PI staining based flow cytometry (reference value: 1.6 to 2.41%)", "assay_type": "functional"}, "[13]": {"tested_on": "MDA-MB-231", "experiment": "Induction of apoptosis in human MDA-MB-231 cells assessed as late apoptotic cells at 10 uM incubated for 48 hrs by AnnexinV-FITC/PI staining based flow cytometry (reference value: 3.77 to 3.84%)", "assay_type": "functional"}, "[14]": {"tested_on": "MDA-MB-231", "experiment": "Induction of apoptosis in human MDA-MB-231 cells assessed as necrotic cells at 10 uM incubated for 48 hrs by AnnexinV-FITC/PI staining based flow cytometry (reference value: 1.79 to 2.53%)", "assay_type": "functional"}, "[15]": {"tested_on": "MDA-MB-231", "experiment": "Induction of apoptosis in human MDA-MB-231 cells assessed as viable cells at 25 uM incubated for 48 hrs by AnnexinV-FITC/PI staining based flow cytometry (reference value: 91.22 to 92.84%)", "assay_type": "functional", "settings": "read-out: Activity"}, "[16]": {"tested_on": "MDA-MB-231", "experiment": "Induction of apoptosis in human MDA-MB-231 cells assessed as early apoptotic cells at 25 uM incubated for 48 hrs by AnnexinV-FITC/PI staining based flow cytometry (reference value: 1.6 to 2.41%)", "assay_type": "functional"}, "[17]": {"tested_on": "MDA-MB-231", "experiment": "Induction of apoptosis in human MDA-MB-231 cells assessed as late apoptotic cells at 25 uM incubated for 48 hrs by AnnexinV-FITC/PI staining based flow cytometry (reference value: 3.77 to 3.84%)", "assay_type": "functional"}, "[18]": {"tested_on": "MDA-MB-231", "experiment": "Induction of apoptosis in human MDA-MB-231 cells assessed as necrotic cells at 25 uM incubated for 48 hrs by AnnexinV-FITC/PI staining based flow cytometry (reference value: 1.79 to 2.53%)", "assay_type": "functional"}, "[19]": {"tested_on": "MDA-MB-231", "experiment": "Induction of apoptosis in human MDA-MB-231 cells assessed as upregulation of cleaved PARP level at 1 to 25 uM incubated for 48 hrs by western blot analysis", "assay_type": "functional, cell-based", "settings": "dose 1-25 µM"}, "[20]": {"tested_on": "MDA-MB-231", "experiment": "Induction of apoptosis in human MDA-MB-231 cells assessed as upregulation of cleaved caspase 7 level at 1 to 25 uM incubated for 48 hrs by western blot analysis", "assay_type": "functional, cell-based", "settings": "dose 1-25 µM"}, "[21]": {"tested_on": "MDA-MB-231", "experiment": "Induction of apoptosis in human MDA-MB-231 cells assessed as upregulation of cleaved caspase 8 level at 1 to 25 uM incubated for 48 hrs by western blot analysis", "assay_type": "functional, cell-based", "settings": "dose 1-25 µM"}, "[22]": {"tested_on": "MDA-MB-231", "experiment": "Induction of cell cycle arrest in human MDA-MB-231 cells assessed as accumulation of cells at G2/M phase at 1 uM incubated for 48 hrs by PI staining based flow cytometry (reference value: 29.42 to 32.08%)", "assay_type": "functional"}, "[23]": {"tested_on": "MDA-MB-231", "experiment": "Induction of cell cycle arrest in human MDA-MB-231 cells assessed as accumulation of cells at G0/G1 phase at 2.5 uM incubated for 48 hrs by PI staining based flow cytometry (reference value: 55.36 to 55.82%)", "assay_type": "functional"}, "[24]": {"tested_on": "MDA-MB-231", "experiment": "Induction of cell cycle arrest in human MDA-MB-231 cells assessed as accumulation of cells at G2/M phase at 2.5 uM incubated for 48 hrs by PI staining based flow cytometry (reference value: 29.42 to 32.08%)", "assay_type": "functional"}, "[25]": {"tested_on": "MDA-MB-231", "experiment": "Induction of cell cycle arrest in human MDA-MB-231 cells assessed as accumulation of cells at G2/M phase at 10 uM incubated for 48 hrs by PI staining based flow cytometry (reference value: 29.42 to 32.08%)", "assay_type": "functional"}, "[26]": {"tested_on": "MDA-MB-231", "experiment": "Induction of cell cycle arrest in human MDA-MB-231 cells assessed as accumulation of cells at G0/G1 phase at 25 uM incubated for 48 hrs by PI staining based flow cytometry (reference value: 55.36 to 55.82%)", "assay_type": "functional"}, "[27]": {"tested_on": "MDA-MB-231", "experiment": "Induction of cell cycle arrest in human MDA-MB-231 cells assessed as accumulation of cells at S phase at 25 uM incubated for 48 hrs by PI staining based flow cytometry (reference value: 12.56 to 14.76%)", "assay_type": "functional"}, "[28]": {"biological_target": "T1, Hepatocyte growth factor receptor", "experiment": "Inhibition of c-Met in human MDA-MB-231 cells assessed as inhibition of ERK phosphorylation incubated for 48 hrs by western blot analysis", "assay_type": "cell-based", "settings": "dose 1-25 µM"}, "[29]": {"biological_target": "T1, Hepatocyte growth factor receptor", "experiment": "Inhibition of c-Met in human MDA-MB-231 cells assessed as inhibition of Akt phosphorylation at […] residue incubated for 48 hrs by western blot analysis", "assay_type": "cell-based", "settings": "dose 1-25 µM"}, "[30]": {"biological_target": "T1, Hepatocyte growth factor receptor", "experiment": "Inhibition of c-Met in human MDA-MB-231 cells assessed as inhibition of Akt phosphorylation at Ser473 residue incubated for 48 hrs by western blot analysis", "assay_type": "cell-based", "settings": "dose 1-25 µM"}},
  "note": "Active and inactive are the calls of the source. The rule behind the calls is not given here.",
  "data": [
    {"smiles": "CC(c1ccc2ncccc2c1)n1nnc2ncc(N3CCN(Cc4ccc(/C=C/C(=O)Nc5ccccc5N)cc4)CC3)nc21", "note": "(stereo not given)", "values": [
      {"measurement": "Activity", "setting": "[1]", "value": 7.57, "unit": "%"},
      {"measurement": "IC50", "setting": "[2]", "value": 28.9, "unit": "nM"},
      {"measurement": "inhibition", "setting": "[3]", "value": "Dose-Dependent Effect"},
      {"measurement": "viability at 2.5 µM", "setting": "[4]", "value": 84.3, "unit": "%"},
      {"measurement": "Activity", "setting": "[5]", "value": 4.92, "unit": "%"},
      {"measurement": "Activity", "setting": "[6]", "value": 6.97, "unit": "%"},
      {"measurement": "Activity", "setting": "[7]", "value": 3.83, "unit": "%"},
      {"measurement": "Activity", "setting": "[8]", "value": 3.1, "unit": "%"},
      {"measurement": "Activity", "setting": "[9]", "value": 6.84, "unit": "%"},
      {"measurement": "Activity", "setting": "[10]", "value": 4.59, "unit": "%"},
      {"measurement": "viability at 10 µM", "setting": "[11]", "value": 83.1, "unit": "%"},
      {"measurement": "Activity", "setting": "[12]", "value": 4.56, "unit": "%"},
      {"measurement": "Activity", "setting": "[13]", "value": 10.69, "unit": "%"},
      {"measurement": "Activity", "setting": "[14]", "value": 1.67, "unit": "%"},
      {"measurement": "viability at 25 µM", "setting": "[15]", "value": 82.8, "unit": "%"},
      {"measurement": "Activity", "setting": "[16]", "value": 3.51, "unit": "%"},
      {"measurement": "Activity", "setting": "[17]", "value": 12.3, "unit": "%"},
      {"measurement": "Activity", "setting": "[18]", "value": 1.42, "unit": "%"},
      {"measurement": "Activity", "setting": "[19]", "value": "Active"},
      {"measurement": "Activity", "setting": "[20]", "value": "Active"},
      {"measurement": "Activity", "setting": "[21]", "value": "Active"},
      {"measurement": "Activity", "setting": "[22]", "value": 27.08, "unit": "%"},
      {"measurement": "Activity", "setting": "[23]", "value": 67.14, "unit": "%"},
      {"measurement": "Activity", "setting": "[24]", "value": 23.33, "unit": "%"},
      {"measurement": "Activity", "setting": "[25]", "value": 16.08, "unit": "%"},
      {"measurement": "Activity", "setting": "[26]", "value": 83.37, "unit": "%"},
      {"measurement": "Activity", "setting": "[27]", "value": 6.06, "unit": "%"},
      {"measurement": "inhibition", "setting": "[28]", "value": "Dose-Dependent Effect"},
      {"measurement": "inhibition", "setting": "[29]", "value": "Dose-Dependent Effect"},
      {"measurement": "inhibition", "setting": "[30]", "value": "Dose-Dependent Effect"}
    ]}
  ]
}
